Source: PubChem BioAssay (NCI)
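The compound was tested at five concentrations on cells cultured in 96-well plates, with a 48-hour exposure period. GI50 = concentration required for 50% inhibition of growth. TGI is the concentration that stops growth completely.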

How the values were obtained:
Assay in all cases: DTP human tumour cell line panel, 48 h
[1] = test system: ACHN renal
[2] = test system: M14 melanoma
[3] = test system: UO-31 renal
[4] = test system: EKVX NSCLC
[5] = test system: SF-295 CNS
[6] = test system: K-562 leukemia
[7] = test system: HL-60(TB) leukemia
[8] = test system: SK-MEL-5 melanoma
[9] = test system: RXF 393 renal
[10] = test system: HOP-92 NSCLC
[11] = test system: MDA-MB-435
[12] = test system: SW-620 colon
[13] = test system: PC-3 prostate
[14] = test system: SF-268 CNS
[15] = test system: SK-MEL-2 melanoma
[16] = test system: NCI/ADR-RES ovarian
[17] = test system: U251 CNS
[18] = test system: TK-10 renal
[19] = test system: CCRF-CEM leukemia
[20] = test system: COLO 205 colon
[21] = test system: KM12 colon
[22] = test system: HCT-116 colon
[23] = test system: MCF7 breast
[24] = test system: NCI-H460 lung
[25] = test system: A498 renal
[26] = test system: BT-549 breast
[27] = test system: NCI-H23 lung
[28] = test system: HT29 colon
[29] = test system: OVCAR-5 ovarian
[30] = test system: A549 NSCLC
[31] = test system: HS 578T breast
[32] = test system: OVCAR-3 ovarian
[33] = test system: RPMI-8226 leukemia
[34] = test system: SR leukemia
[35] = test system: HCC-2998 colon
[36] = test system: MALME-3M melanoma
[37] = test system: UACC-62 melanoma
[38] = test system: SN12C renal
[39] = test system: SK-OV-3 ovarian
[40] = test system: MOLT-4 leukemia
[41] = test system: IGROV1 ovarian
[42] = test system: CAKI-1 renal
[43] = test system: NCI-H226 lung
[44] = test system: SNB-19 CNS
[45] = test system: SK-MEL-28 melanoma
[46] = test system: LOX IMVI melanoma
[47] = test system: MDA-MB-231 breast
[48] = test system: 786-0 renal
[49] = test system: DU-145 prostate
[50] = test system: NCI-H522 lung
[51] = test system: OVCAR-4 ovarian
[52] = test system: SF-539 CNS
[53] = test system: T-47D breast
[54] = test system: SNB-75 CNS
[55] = test system: HOP-62 NSCLC
[56] = test system: HCT-15 colon
[57] = test system: OVCAR-8 ovarian
[58] = test system: UACC-257 melanoma

CS(=O)(=O)Nc1cc(-c2ccc3ncnc(Nc4ccc5c(cnn5Cc5cccc(F)c5)c4)c3c2)cnc1Cl
GI50 [1]: 1630 nM
TGI [1]: 15400 nM
GI50 [2]: 745 nM
TGI [2]: 2500 nM
GI50 [3]: 1040 nM
TGI [3]: 3960 nM
GI50 [4]: 479 nM
TGI [4]: 4700 nM
GI50 [5]: 811 nM
TGI [5]: 3000 nM
GI50 [6]: 913 nM
TGI [6]: > 100000 nM
GI50 [7]: 283 nM
TGI [7]: 1980 nM
GI50 [8]: 397 nM
TGI [8]: 1440 nM
GI50 [9]: 294 nM
TGI [9]: 1450 nM
GI50 [10]: 56.2 nM
TGI [10]: 460 nM
GI50 [11]: 628 nM
TGI [11]: 2300 nM
GI50 [12]: 676 nM
TGI [12]: 6610 nM
GI50 [13]: 411 nM
TGI [13]: 2600 nM
GI50 [14]: 256 nM
TGI [14]: 2070 nM
GI50 [15]: 275 nM
TGI [15]: 1210 nM
GI50 [16]: 5800 nM
TGI [16]: > 78400 nM
GI50 [17]: 419 nM
TGI [17]: 3170 nM
GI50 [18]: 277 nM
TGI [18]: 2190 nM
GI50 [19]: 301 nM
TGI [19]: > 100000 nM
GI50 [20]: 759 nM
TGI [20]: 2960 nM
GI50 [21]: 1140 nM
TGI [21]: 4250 nM
GI50 [22]: 480 nM
TGI [22]: 1840 nM
GI50 [23]: 201 nM
TGI [23]: 1650 nM
GI50 [24]: 929 nM
TGI [24]: 9450 nM
GI50 [25]: 71.7 nM
TGI [25]: 535 nM
GI50 [26]: 227 nM
TGI [26]: 1050 nM
GI50 [27]: 648 nM
TGI [27]: 6280 nM
GI50 [28]: 597 nM
TGI [28]: 5420 nM
GI50 [29]: 608 nM
TGI [29]: 7300 nM
GI50 [30]: 1560 nM
TGI [30]: 5790 nM
GI50 [31]: 111 nM
TGI [31]: 878 nM
GI50 [32]: 293 nM
TGI [32]: 1890 nM
GI50 [33]: 396 nM
TGI [33]: 2050 nM
GI50 [34]: 507 nM
TGI [34]: > 100000 nM
GI50 [35]: 829 nM
TGI [35]: 2550 nM
GI50 [36]: 201 nM
TGI [36]: 1300 nM
GI50 [37]: 324 nM
TGI [37]: 1690 nM
GI50 [38]: 421 nM
TGI [38]: 18900 nM
GI50 [39]: 376 nM
TGI [39]: 2270 nM
GI50 [40]: 318 nM
TGI [40]: 3380 nM
GI50 [41]: 170 nM
TGI [41]: 733 nM
GI50 [42]: 359 nM
TGI [42]: 2480 nM
GI50 [43]: 1110 nM
TGI [43]: 4840 nM
GI50 [44]: 575 nM
TGI [44]: 3650 nM
GI50 [45]: 316 nM
TGI [45]: 1860 nM
GI50 [46]: 400 nM
TGI [46]: 1900 nM
GI50 [47]: 586 nM
TGI [47]: 13200 nM
GI50 [48]: 456 nM
TGI [48]: 5410 nM
GI50 [49]: 756 nM
TGI [49]: 11200 nM
GI50 [50]: 381 nM
TGI [50]: 2740 nM
GI50 [51]: 1380 nM
TGI [51]: 6510 nM
GI50 [52]: 361 nM
TGI [52]: 1750 nM
GI50 [53]: 101 nM
TGI [53]: 922 nM
GI50 [54]: 32.1 nM
TGI [54]: 457 nM
GI50 [55]: 452 nM
TGI [55]: 7950 nM
GI50 [56]: 1110 nM
TGI [56]: 8010 nM
GI50 [57]: 1570 nM
TGI [57]: > 100000 nM
GI50 [58]: 812 nM
TGI [58]: 4470 nM
